{
  "source": "patent US20020137929A1",
  "about": "“1 - (3-heterocyclylphenyl) isothiourea, -isourea, -guanidine and -amidine herbicidal agents” (Intellectual Property Department, BASF Aktiengesellschaft, priority 1998, published 2002)",
  "key": {"[1]": {"system": "CHEAL (Lambsquarters, Common)", "experiment": "Preemergence herbicidal evaluation", "type": "in vivo, Chenopodium album", "details": "rated 4-5 weeks after treatment, rating scale 0-9", "outline": "(§1)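 Herbicidal effect scored visually, 0-9, at 4 to 5 weeks against a control; compound applied preemergence by aqueous acetone spray to seeded soil at about 0.0156 to 0.500 kg/ha.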"}, "[2]": {"system": "ZEAMX (Corn, Field)", "experiment": "Preemergence herbicidal evaluation", "type": "in vivo, Zea mays", "details": "rated 4-5 weeks after treatment, rating scale 0-9", "outline": "as §1"}, "[3]": {"system": "GLXMAW (Soybean, Williams)", "experiment": "Postemergence herbicidal evaluation", "type": "in vivo, Glycine max, (L.) Merr. cv Williams", "details": "postemergence", "outline": "(§2)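 ~2-wk seedlings; postemergence spray, 40 psi; vehicle 1:1 acetone:water + 0.5% Tween 20; rate ≈0.0156–0.500 kg/ha; greenhouse hold; scored 4–5 wk after treatment, 0–9 scale vs control; repeat tests averaged.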"}, "[4]": {"system": "TRZAWR (Wheat, Winter, cv Riband)", "experiment": "Postemergence herbicidal evaluation", "type": "in vivo, Triticum aestivum", "details": "postemergence", "outline": "as §2"}, "[5]": {"system": "IPOHE (Morningglory, Ivyleaf)", "experiment": "Preemergence herbicidal evaluation", "type": "in vivo, Ipomoea hederacea", "details": "rated 4-5 weeks after treatment, rating scale 0-9", "outline": "as §1"}, "[6]": {"system": "SETVI (Foxtail, Green)", "experiment": "Postemergence herbicidal evaluation", "type": "in vivo, Setaria viridis", "details": "postemergence", "outline": "as §2"}, "[7]": {"system": "ECHCG (Barnyardgrass)", "experiment": "Preemergence herbicidal evaluation", "type": "in vivo, Echinochloa crus-galli", "details": "rated 4-5 weeks after treatment, rating scale 0-9", "outline": "as §1"}, "[8]": {"system": "GALAP (Galium)", "experiment": "Preemergence herbicidal evaluation", "type": "in vivo, Galium aparine", "details": "rated 4-5 weeks after treatment, rating scale 0-9", "outline": "as §1"}, "[9]": {"system": "ECHCG (Barnyardgrass)", "experiment": "Postemergence herbicidal evaluation", "type": "in vivo, Echinochloa crus-galli", "details": "postemergence", "outline": "as §2"}, "[10]": {"system": "ABUTH (Velvetleaf)", "experiment": "Postemergence herbicidal evaluation", "type": "in vivo, Abutilon theophrasti", "details": "postemergence", "outline": "as §2"}, "[11]": {"system": "CASOB (Sicklepod)", "experiment": "Preemergence herbicidal evaluation", "type": "in vivo, Cassia obtusifolia", "details": "rated 4-5 weeks after treatment, rating scale 0-9", "outline": "as §1"}, "[12]": {"system": "AMBEL (Ragweed, Common)", "experiment": "Postemergence herbicidal evaluation", "type": "in vivo, Ambrosia artemisifolia", "details": "postemergence", "outline": "as §2"}, "[13]": {"system": "IPOHE (Morningglory, Ivyleaf)", "experiment": "Postemergence herbicidal evaluation", "type": "in vivo, Ipomoea hederacea", "details": "postemergence", "outline": "as §2"}},
  "data": [
    {"compound": "CSCCN1C(=O)CSC1=Nc1cc(-n2c(=O)cc(C(F)(F)F)n(C)c2=O)c(F)cc1Cl", "note": "[Compound 157]", "values": [
      {"measurement": "Preemergence herbicidal rating CHEAL", "setting": "[1]; rate 0.0313 kg/ha", "result": 1.0},
      {"measurement": "Preemergence herbicidal rating CHEAL", "setting": "[1]; rate 0.0625 kg/ha", "result": 0.0},
      {"measurement": "Preemergence herbicidal rating CHEAL", "setting": "[1]; rate 0.1250 kg/ha", "result": 9.0},
      {"measurement": "Preemergence herbicidal rating CHEAL", "setting": "[1]; rate 0.2500 kg/ha", "result": 9.0},
      {"measurement": "Preemergence herbicidal rating ZEAMX", "setting": "[2]; rate 0.0313 kg/ha", "result": 0.0},
      {"measurement": "Preemergence herbicidal rating ZEAMX", "setting": "[2]; rate 0.0625 kg/ha", "result": 0.0},
      {"measurement": "Preemergence herbicidal rating ZEAMX", "setting": "[2]; rate 0.1250 kg/ha", "result": 1.0},
      {"measurement": "Preemergence herbicidal rating ZEAMX", "setting": "[2]; rate 0.2500 kg/ha", "result": 1.0},
      {"measurement": "herbicidal rating GLXMAW", "setting": "[3]; rate 0.0156 kg/ha", "result": 4.5},
      {"measurement": "herbicidal rating GLXMAW", "setting": "[3]; rate 0.0313 kg/ha", "result": 5.0},
      {"measurement": "herbicidal rating GLXMAW", "setting": "[3]; rate 0.0625 kg/ha", "result": 7.5},
      {"measurement": "herbicidal rating TRZAWR", "setting": "[4]; rate 0.0156 kg/ha", "result": 2.5},
      {"measurement": "herbicidal rating TRZAWR", "setting": "[4]; rate 0.0313 kg/ha", "result": 3.5},
      {"measurement": "herbicidal rating TRZAWR", "setting": "[4]; rate 0.0625 kg/ha", "result": 4.0},
      {"measurement": "Preemergence herbicidal rating IPOHE", "setting": "[5]; rate 0.0313 kg/ha", "result": 0.0},
      {"measurement": "Preemergence herbicidal rating IPOHE", "setting": "[5]; rate 0.0625 kg/ha", "result": 0.0},
      {"measurement": "Preemergence herbicidal rating IPOHE", "setting": "[5]; rate 0.1250 kg/ha", "result": 1.0},
      {"measurement": "Preemergence herbicidal rating IPOHE", "setting": "[5]; rate 0.2500 kg/ha", "result": 2.0},
      {"measurement": "herbicidal rating SETVI", "setting": "[6]; rate 0.0156 kg/ha", "result": 0.0},
      {"measurement": "herbicidal rating SETVI", "setting": "[6]; rate 0.0313 kg/ha", "result": 1.0},
      {"measurement": "herbicidal rating SETVI", "setting": "[6]; rate 0.0625 kg/ha", "result": 7.0},
      {"measurement": "Preemergence herbicidal rating ECHCG", "setting": "[7]; rate 0.0313 kg/ha", "result": 0.0},
      {"measurement": "Preemergence herbicidal rating ECHCG", "setting": "[7]; rate 0.0625 kg/ha", "result": 0.0},
      {"measurement": "Preemergence herbicidal rating ECHCG", "setting": "[7]; rate 0.1250 kg/ha", "result": 1.0},
      {"measurement": "Preemergence herbicidal rating ECHCG", "setting": "[7]; rate 0.2500 kg/ha", "result": 0.0},
      {"measurement": "Preemergence herbicidal rating GALAP", "setting": "[8]; rate 0.0313 kg/ha", "result": 0.0},
      {"measurement": "Preemergence herbicidal rating GALAP", "setting": "[8]; rate 0.0625 kg/ha", "result": 0.0},
      {"measurement": "Preemergence herbicidal rating GALAP", "setting": "[8]; rate 0.1250 kg/ha", "result": 0.0},
      {"measurement": "Preemergence herbicidal rating GALAP", "setting": "[8]; rate 0.2500 kg/ha", "result": 4.0},
      {"measurement": "herbicidal rating ECHCG", "setting": "[9]; rate 0.0156 kg/ha", "result": 0.0},
      {"measurement": "herbicidal rating ECHCG", "setting": "[9]; rate 0.0313 kg/ha", "result": 1.0},
      {"measurement": "herbicidal rating ECHCG", "setting": "[9]; rate 0.0625 kg/ha", "result": 2.0},
      {"measurement": "herbicidal rating ABUTH", "setting": "[10]; rate 0.0156 kg/ha", "result": 7.0},
      {"measurement": "herbicidal rating ABUTH", "setting": "[10]; rate 0.0313 kg/ha", "result": 9.0},
      {"measurement": "herbicidal rating ABUTH", "setting": "[10]; rate 0.0625 kg/ha", "result": 9.0},
      {"measurement": "Preemergence herbicidal rating CASOB", "setting": "[11]; rate 0.0313 kg/ha", "result": 1.0},
      {"measurement": "Preemergence herbicidal rating CASOB", "setting": "[11]; rate 0.0625 kg/ha", "result": 0.0},
      {"measurement": "Preemergence herbicidal rating CASOB", "setting": "[11]; rate 0.1250 kg/ha", "result": 1.0},
      {"measurement": "Preemergence herbicidal rating CASOB", "setting": "[11]; rate 0.2500 kg/ha", "result": 5.0},
      {"measurement": "herbicidal rating AMBEL", "setting": "[12]; rate 0.0156 kg/ha", "result": 2.0},
      {"measurement": "herbicidal rating AMBEL", "setting": "[12]; rate 0.0313 kg/ha", "result": 2.0},
      {"measurement": "herbicidal rating AMBEL", "setting": "[12]; rate 0.0625 kg/ha", "result": 5.0},
      {"measurement": "herbicidal rating IPOHE", "setting": "[13]; rate 0.0156 kg/ha", "result": 3.0},
      {"measurement": "herbicidal rating IPOHE", "setting": "[13]; rate 0.0313 kg/ha", "result": 7.0},
      {"measurement": "herbicidal rating IPOHE", "setting": "[13]; rate 0.0625 kg/ha", "result": 6.0}
    ]}
  ]
}
